# Several values for one entry are separate records, joined by “and”; a condition that tells them apart may be missing. Equal entries are not always repeated.
# Legend:
# [1] = Effect on passive cutaneous anaphylaxis (PCA); format: in vivo, female Sprague-Dawley rats; conditions: intravenously with the antigen
# Procedure: (B) Effect on passive cutaneous anaphylaxis (pCA).
# Recipient animals for PCA reactions were female Sprague-Dawley rats, 7 weeks old, 180 g-200 g (Nihon Kurea). Each experiment included 5 observations.
# Five times crystallized ovalbumin (OVA) (Sigma Lot, 31F-8061) was used as antigen.
# Female BDFl mice, 7 weeks old (Nihon Kurea), were given a primary injection (left foot pad, s.c.) of 100 mcg OVA in 0.05 ml saline and after 20 days a booster injection by the same route. Blood was collected 28 days after the primary injection and the sera were stored at -80° C.
# The animals were shared with an electric clipper in advance and prepared for Passive Cutaneous Anaphylaxis (PCA) by injecting 0.05 ml of mouse antiserum dilutions (1/16, 1/32) in each side of the dorsal skin.
# They were then challenged 48 hours later with an intravenous injection of 1 ml of 0.5% Evans Blue containing 5 mg OVA. Fifty minutes later, they were killed and the lesions (diameter) measured.
# A minimal skin response was one with a 5 mm or greater diameter blue spot measured on the dermal side of reflected skin. Drug activity was estimated using the following formula; [formula]
# Drugs were suspended in 0.1% methyl cellulose/saline and given intravenously with the antigen.
# [2] = Inhibition on stress ulcer; format: in vivo, Sprague-Dawley rats; conditions: 32 mg/kg, oral, 22° C. water bath, 7 hours; for Ulcer index Mean ± S. E. / Ulcer index (individual animals): just before immobilization; for Ulcer index Mean ± S. E.: 5 animals; for Ulcer index (individual animals): single animals No. 1-5; for Inh. %: ulcer index inhibition vs control
# Procedure: (A) Inhibition on stress ulcer
# Sprague-Dawley rats weighing about 200 g were used. Each animal was immobilized in a small cage and put in a water bath allowing to respire. The temperature of the water bath kept at 22° C. The test compound .circle.A and .circle.B were administered orally just before the immobilization. Seven hours later, the animals were sacrificed and their stomachs were removed. The stomach was then fixed with 2% formalin. The area of ulcers was measured for each animal. The mean area (mm^2) in the test animals was compared with that in the control animals.
structure (smiles),measurement,setting,value
"O=C(Nc1nn[nH]n1)c1ccc2ccccn2c1=O [Compound .circle.A, N-[5-(1H-Tetrazolyl)]-4H-quinolizin-4-one-3-carboxamide]",Inhibition (%),"[1]; 1 mg/kg, Antiserum concentration 1/16",97.2%
same,Inhibition (%),"[1]; 1 mg/kg, Antiserum concentration 1/32",100%
same,Inhibition (%),"[1]; 10 mg/kg, Antiserum concentration 1/16",94.5%
same,Inhibition (%),"[1]; 10 mg/kg, Antiserum concentration 1/32",100%
same,Ulcer index Mean ± S. E.,[2],6.2 ± 3.0 mm^2
same,Ulcer index (individual animals),[2],18 mm^2 and 5 mm^2 and 3 mm^2 and 4 mm^2 and 1 mm^2
same,Inh. %,[2],67.7%
"O=C(Nc1nn[nH]n1)c1cc(-c2ccccc2)c2ccccn2c1=O [Compound .circle.B, N-[5-(1H-Tetrazolyl)]-1-phenyl-4H-quinolizin-4-one-3-carboxamide]",Ulcer index Mean ± S. E.,[2],8.4 ± 1.9 mm^2
same,Ulcer index (individual animals),[2],10 mm^2 and 11 mm^2 and 3 mm^2 and 5 mm^2
same,Inh. %,[2],83.7%
